Here are results for one substance from patent publication EP0066415A2, “N-(arylthioalkyl)-N'-(aminoalkyl)ureas” (A.H. ROBINS COMPANY, INCORPORATED, priority 1981, dated 1982).

In assay [1] the test system is Coronary Artery Ligation Induced Arrhythmias. Put plainly: Coronary artery ligation induced arrhythmias. It is filed as in vivo, Adult mongrel dogs. To be noted: I.V.; Coronary Artery Ligation Induced arrhythmia; conscious dogs; infusion into saphenous vein at 0.5 mg/kg/min. How it is done: Adult mongrel dogs which were in the conscious state were used for the test and cardiac arrhythmias were induced by prior (22-24 hr) surgical preparation in which blood flow through a coronary artery was occluded by use of a constrictor device as reported by Smith et al, 1973. A Grass Model 79 polygraph was used for recording the electrocardiogram (Grass 7P4 preamplifier).
The test compound was administered by infusion (Harvard Model 942 Infusion Pump) into a sapheneous vein to one group of dogs at a rate of 0.5 mg/kg/min. Concentration of compound was adjusted according to the weight of the dog to allow a volume of infusion of 0.5 ml/min. The test compound was administered orally by gavage to another group of dogs at dose levels of 10 to 40 mg/kg. The test compound was prepared in distilled water to give a total volume of 20 ml. Following the administration of the test compound, the heart rate, number of ectopic cardiac beats per min, and the percent ectopic beats (ectopic beats/BR X100) were recorded at 15 min. intervals. The compound was considered active if it abolished the ectopic ventricular frequency and caused a return to normal sinus rhythm within 2 hours of administration.

Assay [2] has as its system Ouabain Induced Arrhythmias. The experiment in a line: Ouabain induced arrhythmias, correction by i.v. infusion. To be noted: Ouabain-Induced arrhythmia, dogs under barbiturate anesthesia, infusion into femoral vein at 1 mg/kg/min. In kind it is in vivo, adult mongrel dogs. How it is done:
correction of existing cardiac arrhythmias of ventri- cular origin was carried out on (1) adult mongrel dogs which were under barbiturate anesthesia during the test. A Grass Model 7 polygraph was used for recording femoral arterial blood pressure (Statham P23AC transducer) and the electrocardiogram (Grass 7P4 preamplifier). Ouabain was given intravenously in an initial dose of 40 µg/kg and in a second dose of […] 30 minutes after the first dose and in subsequent doses of 10 µg/kg which were repeated at 1.5 min. intervals as required for producing cardiac arrhythmias that persisted for at least 15 minutes. When the arrhythmias were established, the test compounds were administered by infusion (Harvard Model 942 Infusion Pump) into a femoral vein at a rate of 1 mg/kg/min. Concentration of compound was adjusted according to the weight of the dog to allow a volume infusion of 1 ml/min. The compound was considered to be active as an antiarrhythmic agent if reversion to the sinus rhythm occurred and this was maintained for at least 30 min.

With “N'-[2-(Diethylamino)ethyl]-N-(1-methylethyl)-N[2-(phenylsulphonyl)ethyl]urea maleate[1:1] [Example 9]”, the “Correcting Dose Range” value lay in the range of 2 to 5 mg/kg in assay [1] and 4 to 15 mg/kg in assay [2].
